The text below walks through data of ChEMBL document CHEMBL1201862, “PubChem BioAssay data set” (2004).

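All cell lines were grown in 96-well plates and treated with compound for 48 hours. Abbreviation: GI50, concentration required for 50% inhibition of growth.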 Activity calls are given as the source filed them. Rule as the data show it: active = GI50 up to about 1.1 µM and inactive = higher.

Among the test systems are A549; ACHN; EKVX; HCT-15; HOP-92; Hs-578T; LOX IMVI; MDA-MB-231; NCI-H226; NCI/ADR-RES; OVCAR-3; SK-MEL-28; SN12C; SNB-19; SW-620; T47D; HCC 2998; SF-539.
Holding throughout (assay): inhibition of tumour cell growth, NCI panel, 48 h

For `CCC1c2[nH]c3ccccc3c2C[C@H]2C(=O)NC(CCC(=O)OC(C)(C)C)C(=O)N12` (stereo not given in full), the GI50 in the test on A549 is 43 µM (inactive); in the test on ACHN it was 47.4 µM (inactive); with EKVX, 42.6 µM (inactive); in the test on HCT-15, 52 µM; with HOP-92, 30.6 µM (inactive); with Hs-578T it was 32.7 µM (inactive). The GI50 in the test with LOX IMVI is 51.4 µM (inactive); in the test with MDA-MB-231 it was 66.4 µM (inactive); in the test on NCI-H226, > 100 µM (inactive); in the test with NCI/ADR-RES it was 62.5 µM (inactive); in the test with OVCAR-3, 22.4 µM (inactive); in the test with SK-MEL-28 it was 73.5 µM (inactive). Further, the GI50 in the test with SN12C was 39.4 µM (inactive); in the test with SNB-19, 73.5 µM (inactive); with SW-620, 67.3 µM (inactive); in the test with T47D it was 40.6 µM (inactive).

As to `CN1c2ccccc2C(=O)NC12CCN(CC1COc3ccccc3O1)CC2` (stereo not given), the GI50 was 50.6 µM (inactive) in the test on A549; 19.6 µM (inactive) in the test on ACHN; 51.6 µM (inactive) with EKVX; > 100 µM (inactive) in the test on HCC 2998; 14 µM (inactive) in the test with HOP-92; 32.7 µM (inactive) with Hs-578T. Moreover, the GI50 was 45.1 µM (inactive) in the test on LOX IMVI; 19.2 µM (inactive) in the test on NCI-H226; 31.6 µM (inactive) in the test with NCI/ADR-RES; 36.4 µM (inactive) in the test with SF-539; 55.3 µM (inactive) in the test on SK-MEL-28; 31.3 µM (inactive) in the test with SNB-19. For the same compound, the GI50 with SW-620 is 77.8 µM (inactive); in the test with T47D, 21.2 µM (inactive).

For `COc1cc(/C=N\c2nc(-c3ccc(NS(=O)(=O)c4ccc(Cl)c(OC)c4)cc3)cs2)ccc1O`, the GI50 in the test on A549 is 74.6 µM (inactive); in the test with ACHN, 50.7 µM (inactive); with EKVX it was 26.7 µM (inactive); in the test with HCT-15, above 100 µM; with HOP-92, 24.9 µM (inactive); in the test with Hs-578T it was 62.5 µM (inactive). In addition, the GI50 is 35.7 µM (inactive) in the test on LOX IMVI; > 100 µM (inactive) with NCI-H226; > 100 µM (inactive) with NCI/ADR-RES; 69.5 µM (inactive) with OVCAR-3; 47.5 µM (inactive) with SF-539; 33.2 µM (inactive) in the test with SK-MEL-28. Also, the GI50 in the test on SN12C was 42.3 µM (inactive); with SNB-19, > 100 µM (inactive); with SW-620, 41.1 µM (inactive); in the test with T47D, 17.4 µM (inactive).

As to `O=C1C(Br)=C(C2=CC(=P(c3ccccc3)(c3ccccc3)c3ccccc3)C=C2)C(=O)C(Br)=C1C1=CC(=P(c2ccccc2)(c2ccccc2)c2ccccc2)C=C1`, the GI50 was > 100 µM (inactive) in the test on A549; > 100 µM (inactive) in the test on ACHN; 19.9 µM (inactive) in the test on EKVX; 28.2 µM (inactive) in the test on HOP-92; > 100 µM (inactive) with Hs-578T; > 100 µM (inactive) with LOX IMVI. Further, the GI50 was 42.1 µM (inactive) in the test on MDA-MB-231; > 100 µM (inactive) with NCI/ADR-RES; 40.2 µM (inactive) in the test on OVCAR-3; > 100 µM (inactive) in the test with SF-539; 41.8 µM (inactive) with SK-MEL-28; > 100 µM (inactive) with SN12C. Moreover, the figures for the GI50 in the test on SNB-19, with SW-620 and with T47D were > 100 µM (inactive), 19.4 µM (inactive) and > 100 µM (inactive), respectively.

Consider `CC(C)(NC(=O)OCc1ccccc1)C(=O)OC(=O)C(C)(C)NC(=O)OCc1ccccc1`, for which the GI50 with A549 was > 100 µM (inactive); in the test on ACHN it was > 100 µM (inactive); in the test with EKVX, > 100 µM (inactive); in the test with HCT-15, above 100 µM; in the test on HOP-92, > 100 µM (inactive); in the test with Hs-578T, > 100 µM (inactive). Moreover, the GI50 in the test with LOX IMVI, in the test on MDA-MB-231, in the test on NCI-H226, in the test with NCI/ADR-RES, in the test with OVCAR-3 and in the test with SF-539 was > 100 µM (inactive) throughout. Moreover, the GI50 with SK-MEL-28, in the test with SN12C, in the test with SNB-19, in the test on SW-620 and in the test on T47D was > 100 µM (inactive) each time.

`CC(N/N=N/c1ccc(-c2nc3ccccc3[nH]2)cc1)C(=O)O` (stereo not given): the GI50 in the test on A549 was 33 µM (inactive); with ACHN, 40.3 µM (inactive); in the test with EKVX, 31.8 µM (inactive); with HCT-15 it was 9.57 µM; in the test with HOP-92 it was > 100 µM (inactive); with Hs-578T it was 33.7 µM (inactive). Moreover, the GI50 is 28.2 µM (inactive) in the test on LOX IMVI; 33.7 µM (inactive) in the test on MDA-MB-231; > 100 µM (inactive) in the test with NCI-H226; 7.94 µM (inactive) in the test with NCI/ADR-RES; 18.6 µM (inactive) in the test with OVCAR-3; 55 µM (inactive) in the test on SF-539. Besides, the GI50 was > 100 µM (inactive) with SK-MEL-28; 36.3 µM (inactive) in the test on SN12C; > 100 µM (inactive) in the test on SNB-19; 29.8 µM (inactive) in the test with SW-620; 16.3 µM (inactive) in the test on T47D.

Take `CSC1=C(C(=O)Nc2ccc(Cl)cc2)C(N)=NC1=O`: the GI50 was > 100 µM (inactive) in the test with A549; > 100 µM (inactive) with EKVX; > 100 µM (inactive) with HCC 2998; above 100 µM in the test on HCT-15; > 100 µM (inactive) in the test with Hs-578T; > 100 µM (inactive) in the test on LOX IMVI. Moreover, the GI50 in the test on MDA-MB-231, in the test with NCI-H226, in the test with NCI/ADR-RES, in the test on OVCAR-3, in the test with SF-539 and with SK-MEL-28 was > 100 µM (inactive) throughout. Also, the GI50 in the test on SN12C, with SNB-19, with SW-620 and in the test on T47D was > 100 µM (inactive) throughout.

In the case of `O=C(COc1ccc(OCC(=O)N/N=C/c2ccc(-c3ccc(Cl)cc3Cl)o2)c(Cl)c1)N/N=C/c1ccc(-c2ccc(Cl)cc2Cl)o1`, the GI50 in the test on A549 was 85.5 µM (inactive); in the test on ACHN, 70.1 µM (inactive); in the test with EKVX it was 0.142 µM (active); with HCC 2998, 29.8 µM (inactive); in the test on HCT-15 it was above 100 µM; in the test with Hs-578T, 80.2 µM (inactive). Further, the GI50 in the test on LOX IMVI is 57.9 µM (inactive); with MDA-MB-231, 35 µM (inactive); with NCI-H226, 45.7 µM (inactive); with NCI/ADR-RES, 12.3 µM (inactive); in the test with OVCAR-3, 49.5 µM (inactive); with SK-MEL-28, > 100 µM (inactive). Further, the GI50 in the test on SN12C, in the test on SNB-19, in the test with SW-620 and in the test with T47D was > 100 µM (inactive) each time.

As to `N#CCCN(CCC#N)c1ccc(/C=C2\N=C(c3ccccc3)N(c3ccc(Cl)cc3)C2=O)cc1`, the GI50 with A549 was > 100 µM (inactive); with ACHN, > 100 µM (inactive); in the test on EKVX it was > 100 µM (inactive); with HCT-15 it was above 100 µM; in the test on HOP-92, > 100 µM (inactive); in the test on Hs-578T it was 20.6 µM (inactive). The GI50 is 2.5 µM (inactive) in the test on LOX IMVI; > 100 µM (inactive) in the test with MDA-MB-231; > 100 µM (inactive) in the test with NCI-H226; > 100 µM (inactive) in the test on NCI/ADR-RES; > 100 µM (inactive) in the test with OVCAR-3; > 100 µM (inactive) with SF-539. For the same compound, the GI50 with SK-MEL-28, with SN12C, in the test with SNB-19, with SW-620 and with T47D was > 100 µM (inactive) throughout.

On to `COc1ccc(/N=N/C(=O)NC(Cc2ccccc2)C(=O)O)cc1` (stereo not given), for which the GI50 is > 100 µM (inactive) in the test on A549; > 100 µM (inactive) in the test with ACHN; > 100 µM (inactive) in the test on EKVX; > 100 µM (inactive) in the test on HCC 2998; above 100 µM in the test on HCT-15; 28.2 µM (inactive) with HOP-92. The GI50 with Hs-578T, with LOX IMVI, with NCI-H226, in the test on NCI/ADR-RES, with OVCAR-3 and in the test on SF-539 was > 100 µM (inactive) throughout. Besides, the GI50 in the test with SK-MEL-28, with SN12C, in the test with SNB-19, in the test with SW-620 and with T47D was > 100 µM (inactive) in each case.

Take `CCOC(=O)Cc1cc(=O)[nH]c(-n2[nH]c(C)c(CCO)c2=O)n1`: the GI50 in the test with A549 is > 100 µM (inactive); in the test with ACHN it was > 100 µM (inactive); in the test with EKVX it was > 100 µM (inactive); with HCC 2998, > 100 µM (inactive); in the test with HCT-15, above 100 µM; with Hs-578T, > 100 µM (inactive). The GI50 in the test with LOX IMVI, in the test on MDA-MB-231, with NCI-H226, in the test on NCI/ADR-RES, in the test with OVCAR-3 and with SF-539 was > 100 µM (inactive) each time. Also, the GI50 with SK-MEL-28, in the test on SN12C, in the test on SNB-19, in the test on SW-620 and with T47D was > 100 µM (inactive) throughout.

On to `CC1(C)CC2=NC(SSC3=C(C#N)C(c4ccc(Br)cc4)C4=C(O)CC(C)(C)CC4=N3)=C(C#N)C(c3ccc(Br)cc3)C2=C(O)C1` (stereo not given), for which the GI50 in the test with A549 was > 100 µM (inactive); in the test with ACHN, > 100 µM (inactive); in the test on EKVX, > 100 µM (inactive); in the test with HCT-15, above 100 µM; with HOP-92 it was 70.6 µM (inactive); with Hs-578T it was > 100 µM (inactive). Also, the GI50 in the test on LOX IMVI, in the test with MDA-MB-231, with NCI-H226, in the test on NCI/ADR-RES, with OVCAR-3 and in the test with SF-539 was > 100 µM (inactive) in each case. Further, the GI50 in the test on SK-MEL-28, in the test on SN12C, with SNB-19, with SW-620 and with T47D was > 100 µM (inactive) each time.
